The source of these data is US8012980B2, “Isoquinolinone derivatives” (AstraZeneca AB, priority 2008, dated 2011).

Molecules are shown by their SMILES. Counter-ions that a name gives are not always drawn.

The target in the test is T1, human active recombinant p38 (p38α) (Homo sapiens, UniProt Q16539).
T1 construct: 6His
Nature of the test: p38 Alpha Enzyme Assay (AlphaScreen, biotinylated-ATF2 substrate). It counts as biochemical. The settings on record: means of replicate determinations; pre-incubated for 4 hours at 37° C.; SD of assay between 0.2 and 0.3 log units; read-out: p38α inhibition Mean pIC50 (converted). As to the method: The ability of the compounds of formula (I) to inhibit p38 kinase may be determined using the following biological assay:
Enzyme assays were performed in polypropylene 96 well plates. The following solutions were added to each well; 10 μL of compound dilutions in assay buffer (20 mM HEPES pH 7.4, containing 20 mM magnesium acetate, 0.005% (w/v) Tween-20, 10 mM DTT) containing 1% (v/v) DMSO or assay buffer containing 1% (v/v) DMSO alone, 70 μL of assay buffer containing 36 nM substrate (biotinylated-ATF2) and 10 μL of an appropriate dilution of human active recombinant p38-6H is tagged. Depending on batch of p38, an appropriate dilution was typically a 5 nM solution to give a final enzyme concentration of 0.5 nM. At this stage, background control wells also received 50 μL of AlphaScreen quench buffer (10 mM HEPES pH 7.4 containing 100 mM EDTA, 0.2% (w/v) bovine serum albumin). The plate was covered, pre-incubated for 4 hours at 37° C. and the enzyme reaction initiated by addition of 10 μL 1 mM ATP. After incubation for a further 45 minutes at 37° C., the reaction was stopped by addition of 50 μL quench reagent and 50 μL of the quenched reaction mixture transferred to an opaque, white 96-well plate. Detection reagent, 25 μL of 10 mM HEPES pH 7.4 containing 100 mM EDTA, 0.2% (w/v) bovine serum albumin, 0.3 nM anti phosphoATF2 antibody and 25 μg/mL of AlphaScreen protein A acceptor and donor beads' (PerkinElmer Inc.), was added to all wells in a darkened room, the plate sealed and left in the dark for at least 5 hours before AlphaScreen readings were taken using a Perkin Elmer EnVision reader. Total, uninhibited activity was determined from assays performed in each assay plate. The mean control in the absence of p38 activity was subtracted from each well. Data were expressed as percent inhibition of total activity using equation 1. Percent Inhibition=100*(1−Test/Control) Eq.1 Where . . . Test=p38 kinase activity in the presence of compound Control=p38 kinase activity in the absence of compound.
pIC50 is defined as the logarithm of the reciprocal of the concentration of compound required for 50% reduction in total p38 kinase activity.
The standard deviation of the p38 enzyme inhibition assay is between 0.2 and 0.3 log units.

T1 sequence (Q16539 whole entry): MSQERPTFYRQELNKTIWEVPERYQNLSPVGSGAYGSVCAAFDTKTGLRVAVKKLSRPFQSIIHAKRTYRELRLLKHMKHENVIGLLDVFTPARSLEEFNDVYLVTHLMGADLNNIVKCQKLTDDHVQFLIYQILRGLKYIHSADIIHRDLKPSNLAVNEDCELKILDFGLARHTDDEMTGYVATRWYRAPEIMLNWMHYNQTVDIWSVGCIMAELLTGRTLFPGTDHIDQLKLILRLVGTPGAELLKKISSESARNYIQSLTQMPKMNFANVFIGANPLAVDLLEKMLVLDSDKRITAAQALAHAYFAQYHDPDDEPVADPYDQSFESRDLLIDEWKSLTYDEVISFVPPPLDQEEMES

Regarding `Cc1c(F)cc(C(=O)NC2CC2)cc1-c1ccc2c(=O)n(CC(C)(C)CO)cc(C(C)N3CCN[C@@H](CO)C3)c2c1` (stereo partly drawn) [Example 45, N-Cyclopropyl-3-fluoro-5-[2-(3-hydroxy-2,2-dimethylpropyl)-4-{1-[(3R)-3-(hydroxymethyl)piperazin-1-yl]ethyl}-1-oxo-1,2-dihydroisoquinolin-6-yl]-4-methylbenzamide], the IC50 is 0.126 nM. For `Cc1c(F)cc(C(=O)NC2CC2)cc1-c1ccc2c(=O)n(CCO)cc(CN3CCNCC3)c2c1` [Example 5, N-Cyclopropyl-3-fluoro-5-(2-(2-hydroxyethyl)-1-oxo-4-(piperazin-1-ylmethyl)-1,2-dihydroisoquinolin-6-yl)-4-methylbenzamide], the IC50 is 0.2 nM. For the molecule `Cc1c(F)cc(C(=O)NC2CC2)cc1-c1ccc2c(=O)n(CC(C)(C)CO)cc(C(C)N3CCCNCC3)c2c1` (stereo not drawn) [Example 43, N-Cyclopropyl-3-{4-[1-(1,4-diazepan-1-yl)ethyl]-2-(3-hydroxy-2,2-dimethylpropyl)-1-oxo-1,2-dihydroisoquinolin-6-yl}-5-fluoro-4-methylbenzamide], the IC50 is 0.501 nM. With `Cc1c(F)cc(C(=O)NC2CC2)cc1-c1ccc2c(=O)n(C[C@@H](C)CO)cc(CN3CCNCC3)c2c1` [Example 20, N-Cyclopropyl-3-fluoro-5-{2-[(2R)-3-hydroxy-2-methylpropyl]-1-oxo-4-(piperazin-1-ylmethyl)-1,2-dihydroisoquinolin-6-yl}-4-methylbenzamide], the IC50 was 0.794 nM.

Turning to `Cc1c(F)cc(C(=O)NC2CC2)cc1-c1ccc2c(=O)n(CC(C)(C)CO)cc(CN3CCN(CCCO)CC3)c2c1` [Example 32, N-Cyclopropyl-3-fluoro-5-[2-(3-hydroxy-2,2-dimethylpropyl)-4-{[4-(3-hydroxypropyl)piperazin-1-yl]methyl}-1-oxo-1,2-dihydroisoquinolin-6-yl]-4-methylbenzamide], the IC50 is 0.794 nM. The figure for `Cc1c(F)cc(C(=O)NC2CC2)cc1-c1ccc2c(=O)n(CC(C)(C)CO)cc(S[C@@H]3CCNC3)c2c1` [Example 65, N-Cyclopropyl-3-fluoro-5-{2-(3-hydroxy-2,2-dimethylpropyl)-1-oxo-4-[(3R)-pyrrolidin-3-ylsulfanyl]-1,2-dihydroisoquinolin-6-yl}-4-methylbenzamide] is less than 0.0631 nM. As for `Cc1c(F)cc(C(=O)NC2CC2)cc1-c1ccc2c(=O)n(CC(C)(C)CO)cc(CN3CCC[C@@H](N)C3)c2c1` [Example 30, 3-[4-{[(3R)-3-Aminopiperidin-1-yl]methyl}-2-(3-hydroxy-2,2-dimethylpropyl)-1-oxo-1,2-dihydroisoquinolin-6-yl]-N-cyclopropyl-5-fluoro-4-methylbenzamide], the IC50 is 0.126 nM.

Consider `Cc1c(F)cc(C(=O)NC2CC2)cc1-c1ccc2c(=O)n(CC(C)(C)CO)cc(S(=O)(=O)N3CCN[C@@H](CO)C3)c2c1` [Example 49, N-Cyclopropyl-3-fluoro-5-[2-(3-hydroxy-2,2-dimethylpropyl)-4-{[(3R)-3-(hydroxymethyl)piperazin-1-yl]sulfonyl}-1-oxo-1,2-dihydroisoquinolin-6-yl]-4-methylbenzamide], for which the IC50 was 0.501 nM. Take `Cc1c(F)cc(C(=O)NC2CC2)cc1-c1ccc2c(=O)n(CC(C)(C)CO)cc(S(=O)(=O)N3CCCNCC3)c2c1` [Example 46, N-Cyclopropyl-3-[4-(1,4-diazepan-1-ylsulfonyl)-2-(3-hydroxy-2,2-dimethylpropyl)-1-oxo-1,2-dihydroisoquinolin-6-yl]-5-fluoro-4-methylbenzamide]: the IC50 is 0.158 nM. Take `Cc1c(F)cc(C(=O)NC2CC2)cc1-c1ccc2c(=O)n(CC(C)(C)CO)cc(CN3CCNC[C@H]3CO)c2c1` [Example 21, N-Cyclopropyl-3-fluoro-5-[2-(3-hydroxy-2,2-dimethylpropyl)-4-{[(2S)-2-(hydroxymethyl)piperazin-1-yl]methyl}-1-oxo-1,2-dihydroisoquinolin-6-yl]-4-methylbenzamide]: the IC50 is 0.251 nM. With `Cc1c(F)cc(C(=O)NC2CC2)cc1-c1ccc2c(=O)n(CC3CC3)cc(S(=O)(=O)N3CCCNCC3)c2c1` [Example 51, N-cyclopropyl-3-[2-(cyclopropylmethyl)-4-(1,4-diazepan-1-ylsulfonyl)-1-oxo-1,2-dihydroisoquinolin-6-yl]-5-fluoro-4-methylbenzamide], the IC50 is 0.1 nM.

As for `Cc1c(F)cc(C(=O)NC2CC2)cc1-c1ccc2c(=O)n(CC3(CO)CC3)cc(CN3CCN[C@H](CO)C3)c2c1` [Example 15, N-Cyclopropyl-3-fluoro-5-(2-((1-(hydroxymethyl)cyclopropyl)methyl)-4-(((3S)-3-(hydroxymethyl)piperazin-1-yl)methyl)-1-oxo-1,2-dihydroisoquinolin-6-yl)-4-methylbenzamide], the IC50 is 0.501 nM.

`Cc1c(F)cc(C(=O)NC2CC2)cc1-c1ccc2c(=O)n(CC(C)(C)CO)cc(CN3CCCN(C)CC3)c2c1` [Example 2, N-Cyclopropyl-3-fluoro-5-{2-(3-hydroxy-2,2-dimethylpropyl)-4-[(4-methyl-1,4-diazepan-1-yl)methyl]-1-oxo-1,2-dihydroisoquinolin-6-yl}-4-methylbenzamide]: the IC50 was 0.251 nM. As to `Cc1c(F)cc(C(=O)NC2CC2)cc1-c1ccc2c(=O)n(CC(C)(C)CO)cc(CN3CCN[C@@H](C)C3)c2c1` [Example 29, N-Cyclopropyl-3-fluoro-5-[2-(3-hydroxy-2,2-dimethylpropyl)-4-{[(3S)-3-methylpiperazin-1-yl]methyl}-1-oxo-1,2-dihydroisoquinolin-6-yl]-4-methylbenzamide hydrochloride], the IC50 is 0.794 nM.

On to `Cc1c(F)cc(C(=O)NC2CC2)cc1-c1ccc2c(=O)n(CC(C)(C)CO)cc(C(C)N3CCC[C@@H](N)C3)c2c1` (stereo partly drawn) [Example 42, 3-[4-{1-[(3R)-3-Aminopiperidin-1-yl]ethyl}-2-(3-hydroxy-2,2-dimethylpropyl)-1-oxo-1,2-dihydroisoquinolin-6-yl]-N-cyclopropyl-5-fluoro-4-methylbenzamide], for which the IC50 was 0.794 nM. As for `Cc1c(F)cc(C(=O)NC2CC2)cc1-c1ccc2c(=O)n(CC(C)(C)CO)cc(CN3CCC(C)(N)CC3)c2c1` [Example 31, 3-{4-[(4-Amino-4-methylpiperidin-1-yl)methyl]-2-(3-hydroxy-2,2-dimethylpropyl)-1-oxo-1,2-dihydroisoquinolin-6-yl}-N-cyclopropyl-5-fluoro-4-methylbenzamide], the IC50 is 0.794 nM. The figure for `Cc1c(F)cc(C(=O)NC2CC2)cc1-c1ccc2c(=O)n(CC(C)(C)CO)cc(CN3CCN[C@@H](CO)C3)c2c1` [Example 11, N-Cyclopropyl-3-fluoro-5-(2-(3-hydroxy-2,2-dimethylpropyl)-4-(((3R)-3-(hydroxymethyl)piperazin-1-yl)methyl)-1-oxo-1,2-dihydroisoquinolin-6-yl)-4-methylbenzamide] is 0.158 nM. Consider `Cc1c(F)cc(C(=O)NC2CC2)cc1-c1ccc2c(=O)n(CC(C)(C)CO)cc([S+]([O-])C3CCNCC3)c2c1` (stereo not drawn) [Example 59, N-Cyclopropyl-3-fluoro-5-[2-(3-hydroxy-2,2-dimethylpropyl)-1-oxo-4-(piperidin-4-ylsulfinyl)-1,2-dihydroisoquinolin-6-yl]-4-methylbenzamide], for which the IC50 is 0.501 nM.

`Cc1c(F)cc(C(=O)NC2CC2)cc1-c1ccc2c(=O)n(CC(C)(C)CO)cc(CN3CCNC[C@@H]3CO)c2c1` [Example 22, N-Cyclopropyl-3-fluoro-5-[2-(3-hydroxy-2,2-dimethylpropyl)-4-{[(2R)-2-(hydroxymethyl)piperazin-1-yl]methyl}-1-oxo-1,2-dihydroisoquinolin-6-yl]-4-methylbenzamide]: the IC50 was 0.158 nM. Turning to `Cc1c(F)cc(C(=O)NC2CC2)cc1-c1ccc2c(=O)n(CC(C)(C)CO)cc(C(C)N3CCNCC3)c2c1` (single isomer, unassigned) [Example 39, N-Cyclopropyl-3-fluoro-5-[2-(3-hydroxy-2,2-dimethylpropyl)-1-oxo-4-(1-piperazin-1-ylethyl)-1,2-dihydroisoquinolin-6-yl]-4-methylbenzamide], the IC50 was 0.631 nM. For the molecule `Cc1c(F)cc(C(=O)NC2CC2)cc1-c1ccc2c(=O)n(CC(C)(C)CO)cc(CN3CCCNCC3)c2c1` [Example 23, N-Cyclopropyl-3-[4-(1,4-diazepan-1-ylmethyl)-2-(3-hydroxy-2,2-dimethylpropyl)-1-oxo-1,2-dihydroisoquinolin-6-yl]-5-fluoro-4-methylbenzamide], the IC50 is 0.316 nM.
